What all share (assay type): functional, cell-based
For one assay, the system named is THP-1. Put plainly: Cytotoxicity against human THP1 cells by MTT assay. A general note: Tetrazolium dyes change colour on reduction, which living cells bring about.
The next assay has as its system HL-60. Put plainly: Cytotoxicity against human HL60 cells by MTT assay.
Another assay concerns A-375. Put plainly: Cytotoxicity against human A375 cells by MTT assay.
The test system of the next assay is A549. Description: Cytotoxicity against human A549 cells by MTT assay.

As a reminder, the IC50 is the concentration at which inhibition is half-maximal. A high value points to weaker potency in that assay. As to `COc1cc([C@@H]2c3cc4c(cc3[C@@H](O[C@@H]3O[C@@H]5CO[C@@H](C)O[C@H]5[C@H](O)[C@H]3O)[C@H]3COC(=O)[C@H]23)OCO4)cc(OC)c1O` [ETOPOSIDE], the 50% inhibitory concentration (IC50) with THP-1 was determined as 2.16 µM; in the assay with HL-60, 1.83 µM; in the assay on A-375, 3.92 µM; in the assay on A549 it was 9.51 µM.

In the case of `CC1=CC(=O)[C@]23O[C@](C)(C=C2C1=O)CC[C@H]1[C@@H](C[C@H]3C)C1(C)C` [MULTIFIDONE], the half-maximal inhibitory concentration (IC50) was 45.6 µM in the assay with THP-1, 121 µM with HL-60, 159 µM with A-375 and 127 µM in the assay with A549.

The values are drawn from ChEMBL document CHEMBL1139301, “Multifidone: a novel cytotoxic lathyrane-type diterpene having an unusual six-membered A ring from Jatropha multifida” (Bioorg Med Chem Lett, 2009).
